{
  "source": "patent US20250092419A1",
  "about": "“SYNTHETIC TARGETERS OF UBIQUITINATION AND DEGRADATION (STUDS) AS EFFECTORS FOR FEEDBACK CONTROL IN MAMMALIAN CELLS” (The Regents of the University of California, priority 2022, published 2025)",
  "key": {"[1]": {"tested_on": "proteasomal and lysosomal degradation pathways", "test": "Inhibitor assays: rescue of GFP fluorescence in Jurkat T cells expressing STUD and GFP target", "format": "cell-based", "conditions": "5 μM MG-132, 1 μM MLN4924 or 100 nM Bafilomycin A1; 37 C for 5 hours; cells expressing functional STUD and GFP target", "protocol": "72 hours after removal of lentivirus, the Jurkat T cells and an untransduced control cell line were treated with either 5 μM of the proteasomal inhibitor MG-132, 1 μM of the cullin ring ligase inhibitor MLN4924, 100 nM of the lysosomal inhibitor Bafilomycin A1, or DMSO vehicle control and incubate at 37 C for 5 hours. Using flow cytometry to measure GFP fluorescence following treatment, it was observed that GFP fluorescence can indeed be rescued with MG-132 and MLN4924 when cells express both a functional STUD and a GFP target relative to DMSO vehicle control.\nInhibitor Assays: 100,000 cells were plated in a 96 well round bottom plate with either 5 μM MG-132 (Sigma-Aldrich #M7449-200UL), 1 μM MLN4924 (Active Biochem #A-1139), 100 nM Bafilomycin A1 (Enzo Life Sciences #BML-CM110-0100), or DMSO vehicle control and incubated at 37 C for 5 hours. After incubation, cells were pelleted by centrifugation at 400×g for 4 minutes. Supernatant was then removed and cells were washed once with 200 μL PBS. Cells were pelleted again (400×g for 4 minutes) and resuspended in flow buffer (PBS+2% FBS) for assay by flow cytometry."}, "[2]": {"tested_on": "CAR-SZ17 fusion", "test": "Degradation of CAR-SZ17 fusion in Jurkat cells", "format": "cell-based", "conditions": "degron directly fused to the CAR", "protocol": "The ability of the STUD to degrade a CAR in Jurkat cells was tested by generating a CAR construct with SynZIP17 fused to its C-terminus. However, while these STUDs worked to some extent, none of them were able to completely knockdown CAR expression (see FIG. 8)."}, "[3]": {"biological_target": "GFP-SZ17 [GFP: P42212]", "test": "cell-based or functional assay"}, "[4]": {"tested_on": "proteasome", "test": "MG132 proteasome inhibitor treatment of primary human CD4+ T cells expressing GFP nanobody STUD", "format": "cell-based", "conditions": "5 uM MG132, three hours; cells expressing functional nanobody STUD (nanobody(K->R)+Bonger) only", "protocol": "The mechanism of how the STUD reduces GFP was explored. Primary human CD4+ T cells expressing the GFP nanobody STUD were fed with the MG132 proteasome inhibitor and the change in fluorescence was measured over time. Cells expressing a functional STUD should display an increase in fluorescence over time as the proteasome inhibitor took effect.\nUsing proteasome inhibitor to explore cytosolic GFP mechanism: To ascertain the mechanism by which the STUD degrades cytosolic GFP, the cells were inoculated with 5 uM of the proteasome inhibitor MG132 for 1 and 3 hours. Cells were then washed with PBS and analyzed by flow cytometry. Using the same 2-plasmid system as described above, changes in GFP fluorescence relative to controls were measured."}, "[5]": {"tested_on": "NALM6 target cells", "test": "MLN dose response: ON switch CAR, lysis of NALM6 target cells by CD8+ primary human T cells", "format": "cell-based", "conditions": "MLN4924 1 μM to 0.015625 μM; 72 hours at 37 C; antiCD19BBz CAR fused to SynZip plus memSTUD", "protocol": "CD8+ primary human T cells were engineered with an antiCD19BBz CAR fused to a SynZip and a memSTUD that binds the SynZip using the same plasmids outlined in FIG. 14A by lentiviral transduction. As a control, CD8+ primary human T cells were lentivirally transduced with an antiCD19BBz and a SynZip memSTUD which cannot bind the CAR. These engineered cells and an untransduced control were cocultured with NALM6 target cells for 72 hours at 37 C in the presence of MLN4924 ranging from 1 μM to 0.015625 μM and a DMSO vehicle control. After coculture, target cell lysis was assayed by flow cytometry. Specific target cell lysis of each cell line relative to NALM6 cells cultured alone in the same conditions was then calculated.\nCo-culture assays: For all assays, T cells and target cells were co-cultured at a 1:1 ratio with cell numbers varying per assay. All assays contained between 10,000 and 50,000 of each cell type. The Countess II Cell Counter (ThermoFisher) was used to determine cell counts for all assays set up. T cells and target cells were mixed in 96-well round bottom tissue culture plates in 200 μL T cell media, and then plates were centrifuged for 1 min at 400×g to initiate interaction of the cells prior to incubation at 37 C.\nMLN dose response: 25,000 CD8+ primary human T cells were seeded into 96 well round bottom plates in 100 μL fresh media. […]"}, "[6]": {"tested_on": "cullin ring ligase", "test": "MLN4924 rescue of STUD knockdown of CD19BBz CAR expression in CD8+ primary T cells", "format": "cell-based, human", "conditions": "1 μM MLN4924 for 5 hours at 37 C; CD19BBz CAR with STUD"}},
  "note": "Where a SMILES comes first, the peptide text is derived from it. The star is where a group is joined. Cbz = O=C(OCc1ccccc1)*",
  "data": [
    {"compound": "CO/C1=C\\C(C)=C\\[C@@H](C)[C@@H](O)[C@@H](C)C/C(C)=C/C=C/[C@H](OC)[C@@H]([C@@H](C)[C@@H](O)[C@H](C)[C@@]2(O)C[C@@H](O)[C@H](C)[C@@H](C(C)C)O2)OC1=O", "note": "[Bafilomycin A1]", "values": [
      {"measurement": "GFP fluorescence relative to DMSO vehicle control", "setting": "[1]", "value": "No changes to GFP fluorescence"}
    ]},
    {"compound": "Arg-Arg-Arg-Gly (RRRG) [Bonger degron]", "values": [
      {"measurement": "reduction of CAR expression", "setting": "[2]", "value": "over 90%"}
    ]},
    {"compound": "SynZIP18(K->R)-5xGS-RRRG (designed binder)", "values": [
      {"measurement": "median normalized GFP fluorescence (flow cytometry, Jurkat T cells), fold change", "setting": "[3]", "value": 42, "unit": "fold"}
    ]},
    {"compound": "CC(C)C[C@@H](C=O)NC(=O)[C@H](CC(C)C)NC(=O)[C@H](CC(C)C)NC(=O)OCc1ccccc1", "note": "[MG-132] (Cbz-Leu-Leu-Leu-aldehyde)", "values": [
      {"measurement": "change in GFP fluorescence over time", "setting": "[4]", "value": "increase in GFP fluorescence"},
      {"measurement": "GFP fluorescence relative to DMSO vehicle control", "setting": "[1]", "value": "rescued"}
    ]},
    {"compound": "NS(=O)(=O)OC[C@@H]1C[C@@H](n2ccc3c(N[C@H]4CCc5ccccc54)ncnc32)C[C@@H]1O", "note": "[MLN4924]", "values": [
      {"measurement": "specific target cell lysis", "setting": "[5]", "value": "dose dependent"},
      {"measurement": "GFP fluorescence relative to DMSO vehicle control", "setting": "[1]", "value": "rescued"},
      {"measurement": "CAR expression (CAR fluorescence by antibody stain)", "setting": "[6]", "value": "rescue STUD knockdown of CAR expression"}
    ]}
  ]
}
